According to patent EP1146864B1, “PH INDEPENDENT EXTENDED RELEASE PHARMACEUTICAL FORMULATION” (ABBOTT LABORATORIES, priority 1999, dated 2000):

How the values were obtained:
[1] = in children; cited from earlier work

solubility (physchem; pH 1, simulated gastric fluid) [mg/mL]	solubility (physchem; pH 4.7, aqueous buffer) [mg/mL]	solubility (physchem; pH 4.84, aqueous buffer) [mg/mL]	solubility (physchem; pH 5.87, aqueous buffer) [mg/mL]	solubility (physchem; pH 6.17, aqueous buffer) [mg/mL]	solubility (physchem; pH 6.7, aqueous buffer) [mg/mL]	Compound	elimination half-life [1]
						CCCC(CCC)C(=O)O [valproic acid, 2-propylpentanoic acid]	four and fourteen
1	2	3.4	21	36	200	CCCC(CCC)C(=O)O [Divalproex sodium, sodium hydrogen divalproate]	
